Data on two molecules can be found in patent US20170045494A1, “SYSTEMS AND METHODS FOR IDENTIFYING COAGULOPATHIES” (T2 Biosystems, Inc., priority 2014, published 2017).

Format in all cases: cell-based, human
The subject of test [1] is re-calcified citrated blood clotted with thrombin. The test can be described thus: T2MR monitoring of fibrinolysis of thrombin-clotted blood. Particulars: tPA added 30 minutes after 3 U/ml thrombin. Here is the method:
Blood clotting was initiated by addition of 2 μL of a 0.2 M CaCl2 solution and 2 μL of thrombin (Sigma-Aldrich, St. Louis, Mo., final concentration 0.1-3.0 U/ml) to 34 μL of blood in a 200 μL PCR tube (Eppendorf, Hauppauge, N.Y.). All components were pre-warmed for 1 min at 37° C. before mixing. Samples were mixed by three aspiration and dispersion cycles using a pipette, then put into the T2MR reader for measurement. Typical run length was 30 min with a 10 s sampling rate. For some experiments, data collection time was extended to 1 hr.
To establish T2MR signatures for fibrinolysis, tissue plasminogen activator (tPA, Alteplase, Genentech, South San Francisco, Calif.) was added to samples clotted by thrombin. Blood clotting was initiated as described above, and the sample was incubated for […] to allow for complete clot contraction. Then, 0.5-1 μM tPA was added to clotted and contracted samples. Care was taken not to disturb clots, which were usually attached to the tube wall. The pipette tip was carefully placed into the visible serum layer on the tube side opposite to the contracted clot, and 3 μL of tPA solution was added with a single dispensing of the pipettor. The tPA solutions were made from a stock solution prepared according to manufacturer instructions using 0.15 M sodium chloride, pH 7.4.
We measured the dependencies of the T2MR signals during clotting of re-calcified citrated blood samples from healthy donors initiated by adding 3 U/ml thrombin. Thrombin activates platelets and cleaves fibrinogen to form a three-dimensional fibrin network stabilized by factor XIIIa. Addition of thrombin led to rapid formation of a gelatinous meshwork that filled the sample volume accompanied by a small, rapid decrease in the T2MR signal over tens of seconds due to the sample transitioning from a liquid to gel state. […]
We then assessed the sensitivity of the T2MR platform to fibrinolysis by adding tissue-type plasminogen activator (tPA) to the clotted samples 30 minutes after thrombin.

In test [2] the test system is citrated blood. Kind of test: T2MR clot strength (ΔT2) after calcium and kaolin activation. As to conditions: ex vivo addition at 4 or 8 μg/ml; 13 minutes after activation; samples from 3 healthy donors. Here is the method:
(§1) A 0.5 mg/ml solution of abciximab was prepared by diluting the stock 10 mg/5 ml solution by […] in saline. The abciximab-treated blood samples were incubated for at least 5 min prior to clotting. Clotting was initiated by adding 2 μL 0.2 M CaCl2 and 2 μL TEG kaolin to 34 μL of abciximab-treated blood sample. To compare the T2MR signal to TEG MA, a ΔT2 parameter was calculated by taking the difference in T2 between the upper and middle peaks at a time point 13 min after adding calcium and kaolin. The TEG MA values were measured on the same samples following manufacturer instructions.
(§2) For comparison between T2MR and TEG, calcium kaolin activation of citrated blood was used and normal donor samples were treated with various amounts of abciximab, an inhibitor of the platelet glycoprotein allbβ3 receptor that binds fibrin and is essential for clot contraction.

Test [3] deals with citrated blood. Kind of test: Thromboelastography maximum amplitude (TEG MA) after calcium and kaolin activation. As to conditions: ex vivo addition at 4 or 8 μg/ml; samples from 3 healthy donors. Here is the method: as §1, §2

As to Alteplase [tPA], in test [1], the “T2 value of the middle peak after tPA addition” value is reported as “decreased from 250 to 175”, the “T2 value of the third peak after tPA addition (persisted)” value is listed as approximately 100 ms and the “T2 value of the upper peak after tPA addition” value is given as “decreased rapidly”.

B1: abciximab (antibody, chains of the INN, looked up, V domains shown)
VH: EVQLQQSGTVLARPGASVKMSCEASGYTFTNYWMHWVKQRPGQGLEWIGAIYPGNSDTSYIQKFKGKAKLTAVTSTTSVYMELSSLTNEDSAVYYCTLYDGYYVFAYWGQGTLVTVSA
VL: EIVLTQSPVTLSVTPGDSVSLSCRASRDISNNLHWFQQTSHESPRLLIKYASQSMSGIPSRFSGSGSGTDFTLSINSVETEDFGMYFCQQTNSWPYTFGGGTKLEIK
modifications: Fab
Consider B1, for which the “ΔT2 (difference between upper and middle T2 values in the T2MR signature)” value in the test with citrated blood [2] was less than 100 ms. Also, the “TEG MA” value in the test on citrated blood [3] is reported as “less than 40”.
